According to patent US9982011B2, “Legumain activated doxorubicin derivative as well as preparation method and application thereof” (priority 2012, dated 2018):
“Also recorded” adds a separate entry of the source.

Key:
[1] = tested on: BALB/C mice; experiment: Maximum tolerated dose (MTD) / acute toxicity of a single injection in mice; conditions: single injection; for Mortality rate (%) / Number of dead animal: 6 female BALB/C mice
Description: Test purpose: to investigate the acute toxicity of the subject new drug formulation via MTD assay by intravenous administration to mice.
Test drug: S1 and S2 injections, diluted to the corresponding concentrations with physiological saline when tested.
Animal: the first class BALB/C mice, weighing 19-21 g and all mice being female.
Method and results: 36 female BALB/C mice weighing 19-21 g were randomly divided into 6 groups according to their body weights, with 6 mice in each group. […] Control tests were performed by injecting 0.2 ml physiological saline or doxorubicin hydrochloride. […] Blood samples were taken on the 3, 5 and 14 days for counting the whole blood cells. Animals were anatomized on day 14 to take the heart, liver, kidney, lung, spleen, and pancreas for HE staining.
The MTD for intravenous administration of a test drug is an important reference index for drug toxicity.

[2] = tested on: MDA-MB231 cells; experiment: Efficacy in MDA-MB231 tumor model in nude mice; type: in vivo; conditions: i.p. twice weekly for three weeks, S1, S2 30 mg/kg, doxorubicin hydrochloride 4 mg/kg
Description: Test purpose: to investigate the anti-tumor efficacy of S1 and S2 via mouse tumor treatment model.
Test drug: S1 and S2 injections, and doxorubicin hydrochloride injection, diluted to corresponding concentrations by physiological saline when testing.
1. Animal: nude mice of 6-8 weeks old, all female.
1) MDA-MB231 cells were purchased from American type culture collection (ATCC) and identified according the specification provided by ATCC.
2) Production of tumor. […] Mice were randomly grouped after the diameter of the tumor reached about 0.3 cm to 0.4 cm. Then treatment began.
According to the clinical application of S1 and S2, drugs were intraperitoneally injected. A dose of 30 mg/kg (<1/2 MTD) was used for the S1 treatment group, 30 mg/kg (<1/2 MTD) for the S2 treatment group, and 4 mg/kg (>1/2 MTD) for doxorubicin hydrochloride. The control group was administered with physiological saline. The drugs were administered twice weekly for three weeks.

[3] = biological target: T1, Cathepsin B (Homo sapiens, UniProt P07858); experiment: In vitro binding to cathepsin absorbed on a 96-well plate (fluorescence of bound drug); conditions: cathepsin absorbed on 96-well plate, blocked with BSA, FIG. 1
Description: The R6 group allows the drug to be able to target cathepsin (Cathepsin B) in the tumor microenvironment and inhibit the activity of cathepsin necessary for tumor growth, development and metastasis. […] The R6 group also allows the drug to have an additional function of targeting tumor, thus the drug has two targeted effects.
The test method was described as follows. Cathepsin was absorbed on a 96-well plate and blocked with BSA. Succinyl-AANL-DOX (SEQ ID NO: 2), S1 and a mixture of S1 and E-64 (an inhibitor for specific binding of cathepsin) were added to allow them to bind to the cathepsin on the 96-well plate. The unbound drugs were removed and the fluorescence of the bound drug was detected.

[4] = biological target: T1, Cathepsin B; experiment: Cathepsin enzymatic activity with Z-Phe-Arg-NMec substrate; type: biochemical; conditions: pH 6.0, FIG. 2
Description: Furthermore, Z-Phe-Arg-NMec was used as substrate to analyze the activity of cathepsin under pH 6.0. […] Cathepsin B was highly expressed in the lysosome of the tumor cell. It could degrade type I collagen, activate interstitial procollagenase and type IV procollagenase, and degrade type I, II, III and IV collagen fibers in the stroma, thus anticipating infiltration and metastasis of tumor.

[5] = Distribution of drug in tumor and heart tissues after intravenous injection; type: in vivo; conditions: for Distribution in tumor tissue sections (fluorescence microscope): 12 hours after intravenous injection of 10 μmol/kg, compared with Succinyl-AANL-DOX, FIG. 3; for Accumulation in the heart tissue / Accumulation in the tumor tissue: FIG. 4; for Accumulation in the tumor tissue: compared with doxorubicin and Succinyl-AANL-DOX
Description: After intravenous injection of EMC-AANL-DOX (SEQ ID NO: 2), EMC-AANL-DOX (SEQ ID NO: 2) could accumulate at the tumor site due to the targeting property of the EMC group, as compared with Succinyl-AANL-DOX (SEQ ID NO: 2) and more EMC-AANL-DOX (SEQ ID NO: 2) were distributed in the tumor tissue. Since the drug itself could produce fluorescence, we detected distribution of Succinyl-AANL-DOX (SEQ ID NO: 2) and EMC-AANL-DOX (SEQ ID NO: 2) in the tumor tissue sections by fluorescence microscope 12 hours after intravenous injection of 10 μmol/kg Succinyl-AANL-DOX (SEQ ID NO: 2) and EMC-AANL-DOX (SEQ ID NO: 2). The nucleus was stained by 4′,6-diamidino-2-phenylindole (DAPI).

[6] = tested on: 4T1 cells; experiment: Tumor growth inhibition in 4T1 breast cancer model in BALB/C mice; type: in vivo
Description: Test purpose: to investigate the anti-tumor efficacy of Succinyl-AANL-DOX (SEQ ID NO: 2) and EMC-AANL-DOX (SEQ ID NO: 2) in a 4T1 breast cancer treatment model from BALB/C mice.
Treatment drug: Succinyl-AANL-DOX (SEQ ID NO: 2) and EMC-AANL-DOX (SEQ ID NO: 2) injections, and doxorubicin hydrochloride injection, diluted to corresponding concentrations by physiological saline when testing.
1) 4T1 cells were purchased from American type culture collection (ATCC) and identified according the specification provided by ATCC.
2) Production of tumor. 10^6 4T1 cells were subcutaneously injected to the back of the BALB/C mice. Mice were randomly grouped after the diameter of the tumor reached about 0.3 cm to 0.4 cm. Then treatment began.
Succinyl-AANL-DOX (SEQ ID NO: 2), Legubicin and EMC-AANL-DOX (SEQ ID NO: 2) were intraperitoneally injected. The dose of Succinyl-AANL-DOX (SEQ ID NO: 2), Legubicin and EMC-AANL-DOX (SEQ ID NO: 2) were all 28.16 μmol/kg. The dose of doxorubicin hydrochloride was 3.448 μmol/kg. The control group was administered with physiological saline. The drugs were administered twice weekly for three weeks.
4) Results and discussion.

[7] = biological target: serum albumin (Mus musculus, UniProt P07724); conditions: blood taken 10 minutes after intravenous tail injection
Sequence of serum albumin (P07724 25-608): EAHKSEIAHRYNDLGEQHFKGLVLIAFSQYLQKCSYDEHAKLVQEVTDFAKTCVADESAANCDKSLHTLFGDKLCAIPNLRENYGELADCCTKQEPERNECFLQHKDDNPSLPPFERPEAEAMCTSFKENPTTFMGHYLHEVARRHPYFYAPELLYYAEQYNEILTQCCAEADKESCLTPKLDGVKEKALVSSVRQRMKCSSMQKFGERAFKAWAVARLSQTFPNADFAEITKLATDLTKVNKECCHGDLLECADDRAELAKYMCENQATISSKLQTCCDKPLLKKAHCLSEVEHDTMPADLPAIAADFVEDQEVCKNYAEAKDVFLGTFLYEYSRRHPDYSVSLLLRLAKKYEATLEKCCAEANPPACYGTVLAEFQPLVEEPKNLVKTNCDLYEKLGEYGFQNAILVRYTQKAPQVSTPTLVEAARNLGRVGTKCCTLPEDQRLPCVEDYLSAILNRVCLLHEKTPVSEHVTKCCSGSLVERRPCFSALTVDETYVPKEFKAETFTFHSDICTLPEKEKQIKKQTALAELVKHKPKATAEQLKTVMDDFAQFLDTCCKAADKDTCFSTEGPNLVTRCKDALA
Description: Bloods were taken after 10 minutes and centrifuged to obtain serum. The proteins in the serum were precipitated by 70% ethanol.

SMILES: COc1cccc2c1C(=O)c1c(O)c3c(c(O)c1C2=O)CC(O)(C(=O)CO)CC3OC1CC(NC(=O)C(CC(C)C)NC(=O)C(CC(N)=O)NC(=O)C(C)NC(=O)C(C)NC(=O)CCCCCN2C(=O)C=CC2=O)C(O)C(C)O1 (stereo not shown) [Example S1, EMC-AANL-Doxorubicin]
- Mortality rate (%) ([1]; 50 mg/kg): 0%
- Number of dead animal ([1]; 50 mg/kg, observed 17 days): 0
- Mortality rate (%) ([1]; 100 mg/kg): 0%
- Number of dead animal ([1]; 100 mg/kg): 0
- Mortality rate (%) ([1]; 150 mg/kg): 0%
- Number of dead animal ([1]; 150 mg/kg): 0
- Abnormal behaviors and death observed ([1]; 150 mg/kg, mice): no pilo-erection, hair tousle and lackluster, lethargy, stoop, irritable reaction and death were observed
- Mortality rate (%) ([1]; 200 mg/kg): 33.3%
- Number of dead animal ([1]; 200 mg/kg): 2
- Mortality rate (%) ([1]; 300 mg/kg): 100%
- Number of dead animal ([1]; 300 mg/kg): 5
- MTD ([1]; mice): > 100 µmol/kg
- Inhibitory rate of tumor, 20 days ([2]; 20 days): 25.8%
- Size of tumor (mm^3), 20 days ([2]; 20 days, nude mice): 287.42 ± 30.52 mm^3
- Inhibitory rate of tumor, 38 days ([2]; 38 days): 68.5%
- Size of tumor (mm^3), 38 days ([2]; 38 days, nude mice): 678.49 ± 37.7 mm^3
- Binding to cathepsin [3]: bound to the cathepsin; also recorded: can bind cathepsin
- Binding to cathepsin ([3]; listed as EMC-AANL-DOX): can efficiently bind to Cathepsin B
- Inhibition of enzymatic activity of cathepsin [4]: could effectively inhibit the enzymatic activity of cathepsin
- Distribution in tumor tissue sections (fluorescence microscope) [5]: have the effect to accumulate the drug at tumor cell
- Distribution in tumor tissue sections (fluorescence microscope) ([5]; listed as EMC-AANL-DOX): significantly more
- Accumulation in the heart tissue [5]: reduced accumulation in the heart
- Accumulation in the heart tissue ([5]; listed as EMC-AANL-DOX): no accumulation in the heart tissue
- Accumulation in the tumor tissue [5]: accumulation of S1 in the tumor site
- Accumulation in the tumor tissue ([5]; listed as EMC-AANL-DOX): accumulated in a higher concentration in the tumor tissue
- Inhibitory effect on tumor growth (in words) ([6]; 28.16 μmol/kg i.p. twice weekly for three weeks, compared with Succinyl-AANL-DOX, Dox and BOC-AANL-DOX, FIG. 5): could significantly improve the inhibitory effect on tumor growth; also recorded: exhibits a superior inhibitory effect on tumor growth
- Inhibitory effect on tumor growth relative to Succinyl-AANL-DOX ([6]; 4T1 breast cancer model, etc.): 4-5 folds
- Binding to serum albumin / plasma protein in blood [7]: most of S1 could bind to serum albumin and thus precipitated; also recorded: most of S1 bound to the plasma protein
